US20200171065A1, “METHOD FOR TREATING LIVER DISEASE WITH KINSENOSIDE” (HUAZHONG UNIVERSITY OF SCIENCE AND TECHNOLOGY, priority 2017, published 2020)

System: SD mice with ANIT induced intrahepatic cholestasis
Assay: ANIT-induced intrahepatic cholestasis
Type: in vivo
Experimental: 42 SPF SD mice were purchased and raised in the SPF experimental animal center of Tongji Medical College of Huazhong University of Science and Technology. They were provided with standard diet and drinking water. The room temperature was controlled at 23±2° C. After 3 days of adaptive feeding, they were given drugs by intragastric administration. 42 SD mice were randomly divided into 7 groups (normal control group, ANIT model group, KD low-dose group, KD medium dose group, KD high-dose group, UDCA positive control group and KD negative control group), 6 mice in each group were weighed and recorded daily. […] Thereafter, the drug was given again every 24 hours for 3 times, and the animals in each group were fasted (water was provided) after the third time. 72 hours later, the animals were killed and samples were collected.

C[C@H](CCC(=O)O)[C@H]1CC[C@H]2[C@@H]3[C@@H](O)C[C@@H]4C[C@H](O)CC[C@]4(C)[C@H]3CC[C@]12C [UDCA, reference compound]
plasma color (KD 50, 100, 200 mg/kg or UDCA 80 mg/kg by gavage): turned light yellow similar to that of the normal control group
hepatic sinusoid and inflammatory cell infiltration (HE staining) (different doses of KD, UDCA treatment group): normal hepatic sinusoid, obvious hepatocyte gap, and obvious recovery of inflammatory cell infiltration
plasma ALT, AST, AKP, TBIL and DBIL (low, medium and high doses of KD, 80 mg/kg UDCA): can significantly reduce ALT, AST, AKP, TBIL and DBIL
plasma TBA (medium and high doses of KD, 80 mg/kg UDCA): can significantly reduce TBA
